Values quoted from earlier work as cited in patent US6558656B2, “Oral and topical compositions and methods related thereto in the treatment of acne” (priority 2000, dated 2003).
Like-named read-outs stand apart in the source and are kept apart here. Where no end group is shown, it is not given here.

How the values were obtained:
[1] = tested on: C. albicans, Listeria monocytogenes, Pseudomonas aeruginosa, and Serratia marescens; conditions: 5-fluorouracil (5FU)- or morphine-immunosuppressed mice, injection
Newcastle disease virus = conditions: mice infected with the Newcastle disease virus
Candida albicans = conditions: mice, injection
[2] = tested on: BCO, Candida, or Cryptococcus; conditions: immunosuppressed mice infected with BCO

CC(C)(CO)[C@@H](O)C(=O)NCCC(=O)O [Pantothenic acid]
effectiveness in acne (acne; dosage level of 10 grams per day): effective

[Zn] [Zinc]
effectiveness in acne (acne; dosage levels of 100-300 mg per day): moderately effective

CC1=C(/C=C/C(C)=C/C=C/C(C)=C\C(=O)O)C(C)(C)CCC1 [isotretinoin]
sebum production (acne; administered orally): decreasing sebum production | side effects (acne; in vivo, po): potential to induce sever birth defects | effectiveness in acne (acne; oral administration): proven effective in the vast majority of cases

CC1=C(/C=C/C(C)=C/C=C/C(C)=C/CO)C(C)(C)CCC1 [micellized Vitamin A, Vitamin A]
toxicity (acne; in vivo): known toxicity | effectiveness in acne (acne; very high doses): moderately effective

thymosin α1 (SDAAVDTSSEITTKDLKEKKEVVEEAEN; not fully specified (N-terminus); ends and bridges not checked; UniProt P06454 2-29, looked up) [Tα1, an immunomodulatory peptide of 28 amino acids]
protection against opportunistic infections [1]: protect | amount of interferon (IFN) produced (Newcastle disease virus): significant rise | resistance to infection with Candida albicans (Candida albicans): increased resistance | survival rate [2]: increased survival rate
